Where a name gives a salt, the structure may show the parent alone.
Molecular target: T1, human MCH-1R (Homo sapiens, UniProt Q99705)
T1 construct: expressed in transfected cells; host or cells: CHO-K1 (American Type Culture Collection), membrane samples
Test: MCH binding inhibition test
Conditions: membrane samples from MCH-1R expression CHO-K1 cells, 50 pM [125I]MCH, 25° C., one hour; read-out: IC50 (50% inhibition concentration to specific [125I]MCH binding)
Method: A human MCH-1R encoding cDNA sequence [FEBS Letters, 398, 253 (1996); Biochimica et Biophisica Acta, 1401, 216 (1998)] was cloned to plasmid vector pEF/mic/cyto (Invitrogen Corporation). The obtained expression vector was transfected to a host cell CHO-K1 (American Type Culture Collection) using lipofectamine plus reagent (Life Technology Inc.) to provide MCH-1R expression cells.
Membrane samples prepared from the MCH-1R expression cells were incubated with each test compound and 50 pM of [^125I]MCH (NEN Co.), in an assay buffer (50 mM Tris buffer comprising 10 mM magnesium chloride, 2 mM ethylenediamine tetraacetate, 0.01% bacitracin and 0.2% bovine serum albumin; pH 7.4) at 25° C. for an hour, followed by filtration through Glass Filter GF/C (Wattman Co.). After washing the glass filter with 50 mM Tris buffer (pH7.4) comprising 10 mM magnesium chloride, 2 mM ethylenediamine tetraacetate and 0.04% Tween-20, radio activity on the glass filter was measured. Non-specific binding was measured in the presence of 1 μM human MCH and 50% inhibition concentration (IC50 value) of each test compound to specific [^125I] MCH binding was determined.

T1 sequence (Q99705 whole entry): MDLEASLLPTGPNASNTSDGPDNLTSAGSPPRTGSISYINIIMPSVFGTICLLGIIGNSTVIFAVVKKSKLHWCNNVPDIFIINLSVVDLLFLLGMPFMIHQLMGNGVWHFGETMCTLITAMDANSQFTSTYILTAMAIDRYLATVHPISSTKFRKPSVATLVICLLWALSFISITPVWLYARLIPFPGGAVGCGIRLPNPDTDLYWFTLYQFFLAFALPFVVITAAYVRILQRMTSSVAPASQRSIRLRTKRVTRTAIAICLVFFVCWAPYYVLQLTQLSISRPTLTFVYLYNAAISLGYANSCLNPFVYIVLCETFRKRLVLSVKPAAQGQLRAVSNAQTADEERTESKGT

`CC(C)c1cn2cc(NC(=O)c3ccc(-c4ccc(F)cc4)cc3)ccc2n1` [Example 2, 4′-Fluoro-N-(2-isopropylimidazo[1,2-a]pyridin-6-yl)[1,1′-biphenyl]-4-carboxamide] was tested. Which IC50 did it give?
Its IC50 is 3.1 nM.

Which IC50 does the source give for `Cc1c(C2CC2)nc2ccc(NC(=O)c3ccc(-c4ccc(F)cc4)cn3)cn12` [Example 14, N-(2-cyclopropyl-3-methylimidazo[1,2-a]pyridin-6-yl)-5-(4-fluorophenyl)-2-pyridinecarboxamide hydrochloride] here?
Its IC50 is 2 nM.

`Cc1c(C2CC2)nc2ccc(NC(=O)c3ccc(-c4ccccn4)cc3)cn12` [Example 17, N-(2-cyclopropyl-3-methylimidazo[1,2-a]pyridin-6-yl)-4-(2-pyridyl)benzamide hydrochloride] was tested. Which IC50 did it give?
Its IC50 is 3.3 nM.

For `Cc1c(C2CC2)nc2ccc(NC(=O)CCc3ccc(C(F)(F)F)cc3)cn12` [Example 18, N-(2-cyclopropyl-3-methylimidazo[1,2-a]pyridin-6-yl)-3-[4-(trifluoromethyl)phenyl]propanamide], which IC50 is on record?
The IC50 was 4.3 nM.

For `Cc1c(C(C)(C)O)nc2ccc(NC(=O)c3ccc(-c4ccc(C(F)(F)F)cn4)cc3)cn12` [Example 32, N-[2-(1-hydroxy-1-methylethyl)-3-methylimidazo[1,2-a]-pyridin-6-yl]-4-[5-(trifluoromethyl)-2-pyridyl]benzamide], which IC50 is on record?
Its IC50 is 9.5 nM.

`O=C(Nc1ccc2nc(C3CC3)c(CO)n2c1)c1ccc(-c2ccc(C(F)(F)F)cc2)cc1` [Example 36, N-[2-cyclopropyl-3-(hydroxymethyl)imidazo[1,2-a]pyridin-6-yl]-4′-(trifluoromethyl)[1,1′-biphenyl]-4-carboxamide] was tested. Which IC50 did it give?
The IC50 was 10.5 nM.

Test system: MCH-induced feeding behavior
Test: Antagonism test to MCH-induced feeding behavior
Type: in vivo, rat
Conditions: male SD rats satiated with high fat diet; 10 or 30 mg/kg oral, one hour before MCH 5 μg/head into third ventricle
Method: Ketamine-xylazine anesthetized (74 and 11 mg/kg single intraperitoneal administration) male SD rats (9-12 weeks old) were inserted with chronic guide cannule (26 gauge) into their third ventricle as fixed at a set cerebral location with dental resin. The position of the front end of the guide cannula was set to be 2.2 mm behind the bregma on median line and at a depth of 8 mm from the cranial surface. After two weeks' recovery term, the rats were fed with high fat diet for about 4 hours to satiation. Thereafter a needle (33 gauge) which was connected to a microsyringe was inserted into the guide cannula and through which melanin concentrating hormone (MCH, 5 μg/1 μL/head, as dissolved in artificial liquor cerebrospinalis) was administered into each rat's third ventricle. The compound of Example 17 (10 or 30 mg/kg) as suspended in 0.5% aqueous methylcellulose solution was orally administered to the rats an hour before the MCH administration. The rats were successively fed with high fat diet, and their feed intake during the two hours following the MCH administration was measured.
In this test, the feed intake in the case where MCH and artificial liquor cerebrospinalis (aCSF) alone was administered in place of the compound of the present invention was used as the reference.

For `Cc1c(C2CC2)nc2ccc(NC(=O)c3ccc(-c4ccccn4)cc3)cn12` [Example 17, N-(2-cyclopropyl-3-methylimidazo[1,2-a]pyridin-6-yl)-4-(2-pyridyl)benzamide hydrochloride], which “feed intake during the two hours following MCH administration” value is on record?
The value was “dose-dependently inhibited increase in the amount of feed intake induced by the MCH”.
